# Source: ChEMBL document CHEMBL4130341 (Medchemcomm, 2016)
# Calls of active or inactive are those of the source. No cut-off for these calls is given here.
# Target: T1, Nuclear factor erythroid 2-related factor 2 (Mus musculus) (UniProt Q60795)
# T1 sequence (whole entry): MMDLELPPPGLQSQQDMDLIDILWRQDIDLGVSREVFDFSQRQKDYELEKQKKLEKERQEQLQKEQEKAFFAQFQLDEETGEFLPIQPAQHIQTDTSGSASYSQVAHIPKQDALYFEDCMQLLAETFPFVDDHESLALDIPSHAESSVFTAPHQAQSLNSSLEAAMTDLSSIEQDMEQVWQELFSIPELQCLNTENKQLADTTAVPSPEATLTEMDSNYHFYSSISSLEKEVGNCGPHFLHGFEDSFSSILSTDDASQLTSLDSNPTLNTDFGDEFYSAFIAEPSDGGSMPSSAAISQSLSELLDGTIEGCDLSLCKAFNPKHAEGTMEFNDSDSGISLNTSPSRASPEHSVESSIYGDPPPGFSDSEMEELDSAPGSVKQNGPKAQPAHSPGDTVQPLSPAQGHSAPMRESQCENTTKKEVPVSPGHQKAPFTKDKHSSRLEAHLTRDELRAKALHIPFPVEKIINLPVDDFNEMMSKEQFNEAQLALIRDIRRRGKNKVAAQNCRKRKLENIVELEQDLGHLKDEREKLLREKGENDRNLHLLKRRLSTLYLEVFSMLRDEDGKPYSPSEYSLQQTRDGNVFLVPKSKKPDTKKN
# Test: Activation of Nrf2 in mutant mouse BpRc1 cells cytosolic fraction assessed as induction of quinone reductase activity at 10 uM using 2,6-DCIP as substrate in presence of NADH incubated for 48 hrs measured for 1 min relative to control
# Type: cell-based
# Details: not given
row,Structure (SMILES),fold change (FC)
1,O=C(CC(O)c1ccccc1)c1ccc2ccccc2c1 (stereo not drawn),1.74
2,O=C(/C=C/c1cncc(Br)c1)c1ccccc1O,1.03
3,O=C(/C=C/c1ccc2ccccc2c1)c1ccccc1O,1.39
4,O=C(/C=C/c1ccc2ccccc2c1)c1ccccc1,1.41
5,O=C(/C=C/c1ccccc1)c1ccc2ccccc2c1,1.21
6,O=C(/C=C/c1cccc2ccccc12)c1ccccc1O,2.21
7,O=C(/C=C/c1cccc2ccccc12)c1ccccc1,0.92
8,O=C(/C=C/c1ccnc2ccccc12)c1cccc2ccccc12,1.83
9,O=C(/C=C/c1ccc2ccccc2c1)c1ccc2ccccc2c1O,0.97

# Target: T1, Nuclear factor erythroid 2-related factor 2 (Mus musculus)
# Test: Activation of Nrf2 in wild type mouse Hepa1c1c7 cells cytosolic fraction assessed as induction of quinone reductase activity using 2,6-DCIP as substrate in presence of NADH incubated for 48 hrs measured for 1 min
# Details: not given
row,Structure (SMILES),CD [µM]
1,CC(C)(C)c1cc(O)ccc1O [E319],1
2,O=C(/C=C/c1ccc2ccccc2c1)c1ccccc1O,0.5
3,O=C(/C=C/c1cccc2ccccc12)c1ccccc1O,11

# System: HK-2
# Test: Genotoxicity in human HK2 cells assessed as induction of DNA strand breakage at 20 uM after 6 hrs by DAPI staining based alkaline comet assay
# Type: toxicity, cell-based
# Details: hk-2, 6 h
row,Structure (SMILES),Activity
1,O=C(/C=C/c1ccc(Br)cc1)c1ccccc1O,Non-Toxic
2,O=C(/C=C/c1ccccn1)c1ccccc1O,Non-Toxic
3,O=C(CC(O)c1ccccc1)c1ccc2ccccc2c1 (stereo not drawn),Non-Toxic
4,O=C(/C=C/c1ccc2ccccc2c1)c1ccccc1O,Non-Toxic
5,O=C(/C=C/c1ccc2ccccc2c1)c1ccccc1,Non-Toxic
6,O=C(/C=C/c1ccccc1)c1ccc2ccccc2c1,Non-Toxic
7,O=C(/C=C/c1cccc2ccccc12)c1ccccc1O,Non-Toxic
8,O=C(/C=C/c1cccc2ccccc12)c1ccccc1,Non-Toxic

# System: HT-29
# Test: Cytotoxicity against human HT-29 cells assessed as cell survival at 100 uM after 24 hrs by SRB assay relative to control
# Type: functional
# Details: HT-29, 24 h, read-out: Survival
row,Structure (SMILES),viability at 100 µM [%]
1,O=C(/C=C/c1ccc2ccccc2c1)c1ccccc1O,< 50
2,O=C(/C=C/c1ccccc1)c1ccc2ccccc2c1,< 50
3,O=C(/C=C/c1cccc2ccccc12)c1ccccc1O,< 50

# System: HT-29
# Test: Cytotoxicity against human HT-29 cells assessed as cell survival after 24 hrs by SRB assay
# Type: functional, cell-based
# Details: HT-29, 24 h
row,Structure (SMILES),IC50 [µM]
1,O=C(/C=C/c1ccccc1)c1ccc2ccccc2c1,32

# System: TK-10
# Test: Cytotoxicity against human TK10 cells assessed as cell survival after 24 hrs by SRB assay
# Type: functional, cell-based
# Details: TK-10, 24 h
row,Structure (SMILES),IC50 [µM]
1,O=C(/C=C/c1cncc(Br)c1)c1ccccc1O,20
2,O=C(/C=C/c1cccc2ccccc12)c1ccccc1O,14

# System: not listed separately
# Test: Cytotoxicity against mutant mouse BpRc1 cells after 48 hrs by SRB assay
# Type: functional, cell-based
# Details: BPrc1, 48 h
row,Structure (SMILES),IC50 [µM]
1,CC(C)(C)c1cc(O)ccc1O [E319],60
2,O=C(/C=C/c1ccc2ccccc2c1)c1ccccc1O,85
3,O=C(/C=C/c1cccc2ccccc12)c1ccccc1O,45

# System: not listed separately
# Test: Cytotoxicity against wild type mouse Hepa1c1c7 cells after 48 hrs by SRB assay
# Type: functional, cell-based
# Details: Hepa-1c1c7, 48 h
row,Structure (SMILES),IC50 [µM]
1,CC(C)(C)c1cc(O)ccc1O [E319],147
2,O=C(/C=C/c1ccc2ccccc2c1)c1ccccc1O,85
3,O=C(/C=C/c1cccc2ccccc12)c1ccccc1O,33

# Target: T1, Nuclear factor erythroid 2-related factor 2 (Mus musculus)
# Test: Activation of Nrf2 in mutant mouse BpRc1 cells cytosolic fraction assessed as induction of quinone reductase activity using 2,6-DCIP as substrate in presence of NADH incubated for 48 hrs measured for 1 min
# Type: cell-based
# Details: not given
row,Structure (SMILES),CD [µM]
1,CC(C)(C)c1cc(O)ccc1O [E319],6
2,O=C(/C=C/c1ccc2ccccc2c1)c1ccccc1O,20
3,O=C(/C=C/c1cccc2ccccc12)c1ccccc1O,10

# System: MCF7
# Test: Cytotoxicity against human MCF7 cells assessed as cell survival after 24 hrs by SRB assay
# Type: functional, cell-based
# Details: MCF7, 24 h
row,Structure (SMILES),IC50 [µM]
1,O=C(/C=C/c1ccccc1)c1ccc2ccccc2c1,28

# System: Rattus norvegicus
# Test: Toxicity in Wistar rat assessed as effect on behavior at 15 mg/kg, po qd administered over 2 weeks
# Type: organism-based
# Details: in vivo, 336 h
row,Structure (SMILES),Activity
1,O=C(/C=C/c1cccc2ccccc12)c1ccccc1O,Non-Toxic

# System: Salmonella typhimurium
# Test: Mutagenicity in Salmonella typhimurium TA98 in presence of mouse liver S9 fraction by Ames test
# Type: toxicity, organism-based
# Details: salmonella enterica subsp. enterica serovar typhimurium
row,Structure (SMILES),Activity
1,O=C(CC(O)c1ccccc1)c1ccc2ccccc2c1 (stereo not drawn),Non-Toxic
2,O=C(/C=C/c1cncc(Br)c1)c1ccccc1O,Non-Toxic
3,O=C(/C=C/c1ccc2ccccc2c1)c1ccccc1O,Non-Toxic
4,O=C(/C=C/c1ccc2ccccc2c1)c1ccccc1,Non-Toxic
5,O=C(/C=C/c1ccccc1)c1ccc2ccccc2c1,Non-Toxic
6,O=C(/C=C/c1cccc2ccccc12)c1ccccc1O,Non-Toxic
7,O=C(/C=C/c1cccc2ccccc12)c1ccccc1,Non-Toxic
8,O=C(/C=C/c1ccnc2ccccc12)c1cccc2ccccc12,Non-Toxic
9,O=C(/C=C/c1ccc2ccccc2c1)c1ccc2ccccc2c1O,Non-Toxic

# System: MCF7
# Test: Cytotoxicity against human MCF7 cells assessed as cell survival at 100 uM after 24 hrs by SRB assay relative to control
# Type: functional
# Details: not given
row,Structure (SMILES),Activity
1,O=C(CC(O)c1ccccc1)c1ccc2ccccc2c1 (stereo not drawn),Active
2,O=C(/C=C/c1cncc(Br)c1)c1ccccc1O,Active
3,O=C(/C=C/c1ccc2ccccc2c1)c1ccccc1,Active
4,O=C(/C=C/c1cccc2ccccc12)c1ccccc1,Active
5,O=C(/C=C/c1ccnc2ccccc12)c1cccc2ccccc12,Active
6,O=C(/C=C/c1ccc2ccccc2c1)c1ccc2ccccc2c1O,Active

# Same assay, conditions: MCF7, 24 h, read-out: Survival
row,Structure (SMILES),viability at 100 µM [%]
1,O=C(/C=C/c1ccc2ccccc2c1)c1ccccc1O,< 50
2,O=C(/C=C/c1ccccc1)c1ccc2ccccc2c1,< 50
3,O=C(/C=C/c1cccc2ccccc12)c1ccccc1O,< 50

# Target: T1, Nuclear factor erythroid 2-related factor 2 (Mus musculus)
# Test: Ratio of activation of wild type Nrf2 in mouse Hepa1c1c7 cells cytosolic fraction to activation of Nrf2 in mutant mouse BpRc1 cells cytosolic fraction
# Type: cell-based
# Details: not given
row,Structure (SMILES),Ratio
1,O=C(CC(O)c1ccccc1)c1ccc2ccccc2c1 (stereo not drawn),2.9
2,O=C(/C=C/c1cncc(Br)c1)c1ccccc1O,1.5
3,O=C(/C=C/c1ccc2ccccc2c1)c1ccccc1O,2.1
4,O=C(/C=C/c1ccc2ccccc2c1)c1ccccc1,0.7
5,O=C(/C=C/c1ccccc1)c1ccc2ccccc2c1,0.8
6,O=C(/C=C/c1cccc2ccccc12)c1ccccc1O,1.5
7,O=C(/C=C/c1cccc2ccccc12)c1ccccc1,1
8,O=C(/C=C/c1ccnc2ccccc12)c1cccc2ccccc12,0.8
9,O=C(/C=C/c1ccc2ccccc2c1)c1ccc2ccccc2c1O,1.5

# Target: T1, Nuclear factor erythroid 2-related factor 2 (Mus musculus)
# Test: Induction of Nrf2 nuclear translocation in mouse Hepa1c1c7 cells at 20 uM after 6 hrs by DAPI/Hoechst 33258 staining-based immunofluorescence method
# Type: cell-based
# Details: not given
row,Structure (SMILES),Activity
1,CC(C)(C)c1cc(O)ccc1O [E319],Active
2,O=C(/C=C/c1cccc2ccccc12)c1ccccc1O,Active

# System: not listed separately
# Test: Ratio of IC50 for cytotoxicity against mutant mouse BpRc1 cells to CD for activation of Nrf2 in mutant mouse BpRc1 cells cytosolic fraction
# Details: not given
row,Structure (SMILES),Ratio
1,CC(C)(C)c1cc(O)ccc1O [E319],10
2,O=C(/C=C/c1ccc2ccccc2c1)c1ccccc1O,4.2
3,O=C(/C=C/c1cccc2ccccc12)c1ccccc1O,4.5

# System: Rattus norvegicus
# Test: In vivo induction of CYP450 activity in Wistar rat mammary gland microsomal fraction at 15 mg/kg, po qd administered over 2 weeks by measuring EROD activity using 7-ethoxyresorufine as substrate measured for 5 mins
# Type: ADME, organism-based
# Details: microsomes
row,Structure (SMILES),Activity
1,O=C(/C=C/c1cccc2ccccc12)c1ccccc1O,Non-Toxic

# System: Rattus norvegicus
# Test: Toxicity in Wistar rat assessed as effect on body weight at 15 mg/kg, po qd administered over 2 weeks
# Type: organism-based
# Details: in vivo, 336 h
row,Structure (SMILES),Activity
1,O=C(/C=C/c1cccc2ccccc12)c1ccccc1O,Non-Toxic

# System: Rattus norvegicus
# Test: In vivo induction of CYP450 activity in Wistar rat colon microsomal fraction at 15 mg/kg, po qd administered over 2 weeks by measuring EROD activity using 7-ethoxyresorufine as substrate measured for 5 mins
# Type: ADME, organism-based
# Details: microsomes
row,Structure (SMILES),Activity
1,O=C(/C=C/c1cccc2ccccc12)c1ccccc1O,Non-Toxic

# Target: T1, Nuclear factor erythroid 2-related factor 2 (Mus musculus)
# Test: Activation of Nrf2 in wild type mouse Hepa1c1c7 cells cytosolic fraction assessed as induction of quinone reductase activity at 10 uM using 2,6-DCIP as substrate in presence of NADH incubated for 48 hrs measured for 1 min relative to control
# Details: not given
row,Structure (SMILES),fold change (FC)
1,O=C(CC(O)c1ccccc1)c1ccc2ccccc2c1 (stereo not drawn),5.04
2,O=C(/C=C/c1cncc(Br)c1)c1ccccc1O,1.51
3,O=C(/C=C/c1ccc2ccccc2c1)c1ccccc1O,2.96
4,O=C(/C=C/c1ccc2ccccc2c1)c1ccccc1,0.95
5,O=C(/C=C/c1ccccc1)c1ccc2ccccc2c1,0.96
6,O=C(/C=C/c1cccc2ccccc12)c1ccccc1O,3.21
7,O=C(/C=C/c1cccc2ccccc12)c1ccccc1,0.88
8,O=C(/C=C/c1ccnc2ccccc12)c1cccc2ccccc12,1.43
9,O=C(/C=C/c1ccc2ccccc2c1)c1ccc2ccccc2c1O,1.44

# System: Rattus norvegicus
# Test: In vivo induction of CYP450 activity in Wistar rat liver microsomal fraction at 15 mg/kg, po qd administered over 2 weeks by measuring EROD activity using 7-ethoxyresorufine as substrate measured for 5 mins
# Type: ADME, organism-based
# Details: microsomes
row,Structure (SMILES),Activity
1,O=C(/C=C/c1cccc2ccccc12)c1ccccc1O,Toxic

# Target: T1, Nuclear factor erythroid 2-related factor 2 (Mus musculus)
# Test: Ratio of CD for activation of Nrf2 in mutant mouse BpRc1 cells cytosolic fraction to CD for activation of Nrf2 in wild type mouse Hepa1c1c7 cells cytosolic fraction
# Type: cell-based
# Details: not given
row,Structure (SMILES),Ratio
1,CC(C)(C)c1cc(O)ccc1O [E319],6
2,O=C(/C=C/c1ccc2ccccc2c1)c1ccccc1O,40
3,O=C(/C=C/c1cccc2ccccc12)c1ccccc1O,0.91

# System: not listed separately
# Test: Ratio of IC50 for cytotoxicity against wild type mouse Hepa1c1c7 cells to CD for activation of Nrf2 in wild type mouse Hepa1c1c7 cells cytosolic fraction
# Details: not given
row,Structure (SMILES),Ratio
1,CC(C)(C)c1cc(O)ccc1O [E319],147
2,O=C(/C=C/c1ccc2ccccc2c1)c1ccccc1O,170
3,O=C(/C=C/c1cccc2ccccc12)c1ccccc1O,3
